# Source: patent US20090069324A1, “CHEMICAL INHIBITORS OF BFL-1 AND RELATED METHODS” (The Burnham Institute, priority 2007, published 2009)
# Where “and” joins values, the source holds several entries; their conditions need not be identical. Equal entries are not always repeated. Entries after “also recorded” stand apart in the source; their conditions may differ.
# Legend:
# [1] = tested on: RS11846 B-lymphoma cell line; experiment: Induction of apoptosis, Annexin-FITC/PI flow cytometry; assay type: cell-based, human; settings: 16 hours incubation
# Excerpt: To test compounds for their ability to induce apoptosis in cancer cells, the RS11846 B-lymphoma cell line was used. The RS11846 cell line was established from a patient with an aggressive form of diffuse large cell lymphoma, representing a subset of B-lymphoma in humans. This type of human B-lymphoma is characterized by infiltration beyond lymphoid compartment (bone marrow, spleen, lymph nodes, liver and etc.), typically infiltrate into ovary (in female), testis (in male), spinal cord and CNS (central nervous system) therefore given nomenclature of “diffuse.” Histo-pathologically, the RS11846 cell line is diffuse large cell B-lymphoma, thus representing an immature, aggressive form of the disease. […] Therefore, this cell line is suitable for examining biological effects of Bfl-1 antagonists concerned in this patent application.
# For the assay to test compounds for their ability to induce apoptosis, the RS11846 B-lymphoma cell line was cultured in RPMI-1640 supplemented by 10% FBS and Penicillin/Streptomycin. The cells were seeded at cell density of half a million cells per ml, and incubation time was 16 hours. In the assay, cell viability was analyzed by the Annexin-FITC/PI method, using flow cytometry, or FACS analysis. Viable cells were defined by Annexin-FITC-negative, PI-negative. Compensation was done using conventional methods and using the Flo-jo program.
# IC50 (50% killing) was determined using an extrapolation method based on the finding that biological response is almost linear near at 50% inhibition point when plotted against semi-log scale on X-axis. See, D. J. Finney, Statistical Method in Biological Assay, Griffin, London, 1978. Briefly, % viability was plotted on Y-axis on an ordinary scale, while drug concentration was plotted on X-axis on a semi-log scale. The actual 50% inhibition point is on the line between left-bracket (higher than 50% inhibition) and right bracket (lower than 50% inhibition), and it can be extrapolated on the line on a semi-log scale. Thus, IC50 was extrapolated via left bracketing and right bracketing, and extrapolated on a semi-log scale, and then, re-converted back to an ordinary scale.
# Bfl-1 [2] = target: T1, Bfl-1 (Homo sapiens, UniProt Q16548); experiment: Bfl-1 fluorescence polarization assay (FPA/FP), competition with FITC-Bid BH3 peptide; assay type: binding
# T1 construct: lacking their C-terminal transmembrane domains (approximately last 20 amino-acids); made in house; host or cells: XL-1 Blue cells (E. coli), pGEX 4T-1
# T1 sequence (Q16548 1-155 limits assumed): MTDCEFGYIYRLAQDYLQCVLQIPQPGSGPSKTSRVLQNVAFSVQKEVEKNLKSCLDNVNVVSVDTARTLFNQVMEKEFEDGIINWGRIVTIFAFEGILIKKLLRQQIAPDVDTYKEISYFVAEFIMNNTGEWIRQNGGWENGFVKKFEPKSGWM
# Experimental: Fluorescence polarization assays (FPA). To determine the binding affinity of anti-apoptotic Bcl-2 polypeptides to FITC-conjugated Bid BH3 peptide, fluorescence polarization assays (FPAs) were performed according to published procedures (Zhai et al., Biochem. J. 376:229-236 (2003)). […] Fluorescence polarization was measured after 10 min using an Analyst™ AD Assay Detection System (LJL Biosystem, Sunnyvale, Calif.) in phosphate-buffered saline (PBS) (pH 7.4). The IC50 determinations were performed using GraphPad Prism software (GraphPad, Inc., San Diego, Calif.).
# Competition assays. Using the same procedure outlined above, 100 nM of GST-Bfl-1 protein were incubated with the compounds at 50 μM concentration for 30 min. Then, 5 nM of FITC-Bid BH3 peptide was added. Fluorescence polarization was measured after 10 min. […]
# Bfl-1 [3] = target: T1, Bfl-1; experiment: Bfl-1 TR-FRET assay (FITC-Bid, Tb-anti-GST antibody); assay type: binding
# Experimental: TR-FRET assay. For confirmation of FPA results, a TR-FRET assay utilizing terbium- (Tb-) labeled anti-GST antibody (Th-Ab) was developed. […] The reaction mixture was preincubated for 1 h, and TR-fluorescence (TRF) was measured on an M5 plate reader (Molecular Devices) using excitation at 340 nm and emission at […]. The measurements were averaged from 5 readings during 1 ms after an initial delay 0.1 ms. TR-FRET signal was calculated as the ratio of TR-Fluorescence at 520 nm to TR-Fluorescence at […].
# For Bfl-1 TR-FRET assays, Bfl-1 protein and FITC-Bid peptide (FITC-Ahx-[…]) (SEQ ID NO: 1) were utilized. Terbium-anti-GST antibody (Tb-anti-GST Ab) was obtained from Invitrogen (San Diego Calif.). The assay buffer contained 25 mM Bis-Tris, pH 7.0, 1 mM TCEP, and 0.005% Tween 20. The Tb-Ab buffer contained 2.5 nM Tb-anti-GST antibody in assay buffer. The Bfl-1/Th-Ab working solution contained 5 nM Bfl-1 in Th-Ab assay buffer. The solution was prepared fresh and kept on ice prior to use. The FITC-Bid working solution contained 5.6 nM FITC-Bid in assay buffer.
# For the Bfl-1 TR-FRET dose-response screening protocol, dose-response curves contained 10 concentrations of compounds obtained using 2-fold serial dilution. Compounds were serially diluted in 100% DMSO, and then diluted with water to 10% final DMSO concentration. A 4 μl aliquot of compounds in 10% DMSO was transferred into columns 3-22 of Greiner 384-well white small-volume plates. Columns 1-2 and 23-24 contained 4 μL of 10% DMSO.
# Columns 1-2 were reserved for positive controls, and 8 μL of Th-Ab buffer was added using a WellMate bulk dispenser (Matrix). An aliquot of 8 μL of Bfl-1/Th-Ab working solution was added to columns 3-24 of Greiner 384 well white plates using a WellMate bulk dispenser (Matrix). Columns 23-24 represented negative control wells. Plates were incubated for 1 h at 4° C. An 8 μL aliquot of freshly prepared FITC-Bid working solution was added to the whole plate using WellMate bulk dispenser (Matrix). Plates were incubated for 4 h at room temperature protected from direct light. Fluorescence was measured on the M5 plate reader (excitation: 340 nm, emission: 490 and 520 nm, cutoff: 475 and 515 nm, respectively) in Time Resolved (TR) mode with signal integrated for 1 ms after initial delay of 0.1 ms. TR-FRET signal was calculated as the ratio of TR-Fluorescence at 520 nm to TR-Fluorescence at 490 nm. Data analysis was performed using a sigmoidal dose-response equation through non-linear regression.
# Solubility = experiment: Solubility
# Experimental: Compounds were screened for inhibitory activity of Bfl-1 essentially as described in Example 1, and including a 1 h incubation of Bfl-1 in the presence of compounds and a 4 h incubation after the subsequent addition of the fluorescent probe. […] The assay was screened against the entire NIH small molecule library, which at the time consisted of 65,000 compounds. […] Controls included an “artifact” plate on which a GAPDH assay was performed to check selectivity, and a solubility plate on which a solubility assay was performed to test solubility.
# Bcl-2 = target: T2, Bcl-2 (Homo sapiens, UniProt P10415); experiment: Bcl-2/FITC-Bim FPA selectivity assay; assay type: binding
# T2 construct: lacking their C-terminal transmembrane domains (approximately last 20 amino-acids); GST (N); made in house; host or cells: XL-1 Blue cells (E. coli), pGEX 4T-1
# T2 sequence (P10415 1-218 limits assumed): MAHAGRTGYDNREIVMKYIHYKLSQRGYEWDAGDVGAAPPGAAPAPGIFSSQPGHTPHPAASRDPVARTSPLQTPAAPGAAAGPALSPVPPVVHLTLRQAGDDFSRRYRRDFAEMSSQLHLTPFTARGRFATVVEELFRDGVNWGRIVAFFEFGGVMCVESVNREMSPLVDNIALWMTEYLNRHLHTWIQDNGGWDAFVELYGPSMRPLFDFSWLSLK
# Excerpt: (§1) This example illustrates assays for determining the selectivity of chemical inhibitors for Bfl-1. Bfl-1, as with other Bcl-2 family proteins, participates in a very complex and intricate network of interactions with other representatives of the family. Therefore, two selectivity assays involving family members Bcl-2 and Bcl-B were developed.
# (§2) For Bcl-2, a FITC-conjugated peptide corresponding to the BH3 domain of Bim was used. For Bcl-B, a FITC-conjugated peptide corresponding to a fragment of the TR3/Nur77 protein shown to bind this member of the Bcl-2 family was used.
# (§3) Probe specificity for target or for cell-based/phenotypic assays data can be determined in orthogonal cell-based assay systems that address the pathway of interest. For example, compounds were tested in Bfl-1/FITC-Bid FPA and TR-FRET assays (FIGS. 7A and 7B, respectively), as well as Bcl-2/FITC-Bim FPA (FIG. 7C) and Bcl-B/FITC-TR3-R8 FPA (FIG. 7D) assays. Data represent concentration in μM x-axis) vs % displacement (y-axis).
# Bcl-B = target: T3, Bcl-B (Homo sapiens, UniProt Q9HD36); experiment: Bcl-B/FITC-TR3-R8 FPA selectivity assay; assay type: binding
# T3 construct: lacking their C-terminal transmembrane domains (approximately last 20 amino-acids); GST (N); made in house; host or cells: XL-1 Blue cells (E. coli), pGEX 4T-1
# T3 sequence (Q9HD36 1-182 limits assumed): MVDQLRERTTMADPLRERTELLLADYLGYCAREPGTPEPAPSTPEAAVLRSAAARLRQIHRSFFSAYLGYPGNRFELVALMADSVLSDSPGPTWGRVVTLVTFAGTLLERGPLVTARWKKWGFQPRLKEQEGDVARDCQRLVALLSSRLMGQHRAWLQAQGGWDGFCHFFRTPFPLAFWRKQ
# Excerpt: as §1, §2, §3
# [4] = tested on: anti-apoptotic members of the Bcl-2-family; experiment: FPA competition assay, GST-Bcl-2 fusion proteins with FITC-Bid BH3 peptide in PBS; assay type: binding, human; settings: 100 nM GST-fusion proteins, 5 nM FITC-Bid BH3 peptide
# Experimental: Bcl-2-binding compounds were tested by competition assay analysis. The green tea compound […] (EGCG) has been reported to bind Bcl-2 and Bcl-XL (Leone et al., Cancer Res 63:8118-8121 (2003)). The ability of EGCG to compete with fluorochrome-labeled BH3 peptides was confirmed by FPA. 100 nM of GST-Bcl-2 fusion proteins were incubated with various concentrations of EGCG or control compound ECG (“C”) for 2 min in PBS buffer in 50 uL. Next, 5 nM FITC-conjugated-Bid BH3 peptide was added, bringing final volume to 100 uL and final DMSO concentration to 1%. Fluorescence polarization was measured after 20 min. […] This compound therefore can serve as a positive control when performing high throughput screens of a chemical library.
# [5] = Tables 3-5, read-out: Bfl-1 TR FRET IC50
# [6] = Tables 7-8, Avg where the cell lists several determinations, read-out: Bfl-1 FPA IC50
# [7] = Tables 7-8, Avg where the cell lists several determinations, read-out: Bfl-1 TR-FRET IC50
# [8] = Tables 7-8, Avg where the cell lists several determinations
smiles,measurement,setting,value
CCOC(=O)CS(=O)(=O)c1nc(-c2ccccc2)cc(C(F)(F)F)n1 [Compound 3],induction of apoptosis,[1],induction of apoptosis
O=C1C(Cl)=C(N2CCN(CCOCCO)CC2)C(=O)N1c1ccc(Cl)c(Cl)c1 [MLS-0090861],IC50,"Bfl-1 [2]; text b268, assay not stated (equals FP value of Table 5), read-out: IC50",470 nM
same,IC50,Bfl-1 [3]; [5],0.42 µM
same,aqueous solubility compared with CID-1180676,Solubility,enhanced aqueous solubility
"CN1CCN(C2=C(Cl)C(=O)N(c3ccc(Cl)c(Cl)c3)C2=O)CC1 [CID-1180676, 3-chloro-1-(3,4-dichlorophenyl)-4-(4-methylpiperazin-1-yl)pyrrole-2,5-dione]","Bfl-1 FP assay, activity in words",Bfl-1 [2]; Bfl-1/FITC-Bid,submicromolar potency; also recorded: potently disrupt
same,IC50,"Bfl-1 [2]; Tables 3-5, read-out: Bfl-1 FP IC50",750 nM
same,IC50,Bfl-1 [2]; [6],617 nM
same,"Bfl-1 TR-FRET assay, activity in words",Bfl-1 [3]; Bfl-1/FITC-Bid,submicromolar potency; also recorded: potently disrupt
same,IC50,Bfl-1 [3]; [5],0.56 µM
same,IC50,Bfl-1 [3]; [7],0.479 µM
same,"Bfl-1 TR-FRET IC50 (uM), individual determinations","Bfl-1 [3]; Tables 7-8, single values listed before the Avg",nofit
same,IC50,"Bfl-1 [3]; Tables 7-8, single values listed before the Avg, read-out: Bfl-1 TR-FRET IC50 (uM), individual determinations",0.304 µM and 0.443 µM and 0.317 µM and 0.471 µM and 0.445 µM and 1.09 µM and 0.475 µM and 0.584 µM and 0.186 µM
same,"Competition for binding of a BH3 peptide to Bcl-2, in words",Bcl-2; Bcl-2/FITC-Bim complex,limited activity
same,"Effect on complex of Bcl-B/FITC-TR3-R8, in words",Bcl-B,did not affect
COc1ccc(-c2cc(C(F)(F)F)nc(S(C)(=O)=O)n2)cc1OC [Compound 11],induction of apoptosis,[1],induction of apoptosis
"CC(C)C(C(=O)O)N1C(=O)/C(=C/c2ccc(Br)cc2)SC1=S (centres unmarked) [BH3I-1, (Z)-2-(5-(4-Bromobenzylidene)-4-oxo-2-thioxothiazolidin-3-yl)-3-methylbutanoic acid, reference compound]",IC50,"Bfl-1 [2]; conditions not stated, not the assay with 0.005% Tween 20, read-out: Bfl-1 (FP): IC50",4650 nM
same,IC50,"Bfl-1 [2]; in the presence of 0.005% Tween 20, read-out: IC50 in Bfl-1 FP assay",> 20000 nM
same,IC50,Bcl-2; read-out: Bcl-2 (FP): IC50,1140 nM
same,IC50,Bcl-B; read-out: Bcl-B (FP): IC50,1080 nM
CCOC(=O)CS(=O)(=O)c1nc(-c2ccc(F)cc2)cc(C(F)(F)F)n1 [Compound 9],induction of apoptosis,[1],induction of apoptosis
CS(=O)(=O)c1nc(-c2ccccc2)cc(C(F)(F)F)n1 [Compound C164-0003],Bfl-1 FPA IC50 (uM),Bfl-1 [2]; [8],nodisplacement
same,Bfl-1 TR-FRET IC50 (uM),Bfl-1 [3]; [8],nodisplacement
COc1ccc(-c2cc(N)n(S(=O)(=O)c3c(F)c(F)c(F)c(F)c3F)n2)cc1OC [Compound 10],induction of apoptosis,[1],induction of apoptosis
"O=C(O[C@@H]1Cc2c(O)cc(O)cc2O[C@@H]1c1cc(O)c(O)c(O)c1)c1cc(O)c(O)c(O)c1 [ECGC, epigallecatechin]",binding to anti-apoptotic Bcl-2-family members,[4],binds to all six anti-apoptotic members of the Bcl-2-family
CC(C)c1nnc(NC(=O)CCS(=O)(=O)c2nc(-c3cccs3)cc(C(F)(F)F)n2)s1 [ASN05990586],IC50,Bfl-1 [2]; [6],11300 nM
same,IC50,Bfl-1 [3]; [7],5.3 µM
